Data from US9051290B2, “Biaryl phosphodiesterase inhibitors” (LEO PHARMA A/S, priority 2010, dated 2015).

These compounds were tested against Human recombinant PDE4 (Genbank accession no NM—006203) (Homo sapiens, UniProt Q08499) (assay: PDE4 assay (SPA, cleavage of cAMP)). Conditions: 1 hour incubation, test compound up to 10 μM, cAMP 1×10^−5M, read-out: PDE4 IC50 range.
Assay type: biochemical
Method: Human recombinant PDE4 (Genbank accession no NM_006203) was incubated for 1 hour with the test compound at concentrations up to 10 μM, with cAMP (1×10^−5M), and with a low amount (0.021 MBq) of radioactively labelled cAMP. At the end of the incubation, the cleavage of the substrate was evaluated by the binding of the AMP product to SPA beads, which generate chemoluminescence when bound to the radioactive tracer. The AMP product inhibited the binding of the radioactive tracer to the beads, and the luminescent signal was competed.
The results were calculated as the molar concentrations resulting in 50% inhibition of the substrate cleavage compared to controls samples, and are expressed as a range of IC50 (M).
The compounds of the present invention were tested in the PDE4 assay.

Sequence of Human recombinant PDE4 (Genbank accession no NM—006203) (Q08499 1-673 isoform Q08499-2): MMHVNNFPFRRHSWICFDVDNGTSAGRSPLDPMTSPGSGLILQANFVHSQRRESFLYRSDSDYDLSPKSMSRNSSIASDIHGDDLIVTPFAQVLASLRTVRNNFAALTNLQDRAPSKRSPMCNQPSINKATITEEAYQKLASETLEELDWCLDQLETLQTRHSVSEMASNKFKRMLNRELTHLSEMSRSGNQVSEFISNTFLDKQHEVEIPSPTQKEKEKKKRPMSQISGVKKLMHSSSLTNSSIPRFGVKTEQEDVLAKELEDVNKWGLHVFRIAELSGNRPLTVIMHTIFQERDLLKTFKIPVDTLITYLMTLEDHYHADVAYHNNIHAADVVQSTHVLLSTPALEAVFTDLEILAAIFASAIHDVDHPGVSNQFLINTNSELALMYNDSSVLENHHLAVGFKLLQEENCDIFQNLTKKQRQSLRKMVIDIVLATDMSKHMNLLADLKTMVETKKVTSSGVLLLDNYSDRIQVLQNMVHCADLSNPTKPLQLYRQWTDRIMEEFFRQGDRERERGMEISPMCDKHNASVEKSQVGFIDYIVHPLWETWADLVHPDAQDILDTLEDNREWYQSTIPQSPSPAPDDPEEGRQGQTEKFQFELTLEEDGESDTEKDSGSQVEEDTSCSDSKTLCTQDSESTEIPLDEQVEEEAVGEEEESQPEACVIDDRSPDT

IC50	SMILES
< 100 nM	COC(=O)C(C)(C)COc1c(-c2cccc3c2CCC3=O)ccc(OC)c1OC [Compound 162, 3-[2,3-Dimethoxy-6-(1-oxo-indan-4-yl)-phenoxy]-2,2-dimethyl-propionic acid methyl ester]
< 100 nM	CNC(=O)c1ccc(COc2c(-c3ccc4c(c3)COC4=O)ccc(OC)c2OC)cc1 [Compound 138, 4-[2,3-Dimethoxy-6-(1-oxo-1,3-dihydro-isobenzofuran-5-yl)-phenoxymethyl]-N-methyl-benzamide]
< 100 nM	CCNC(=O)OCC1(COc2c(-c3cccc4c3CCC4=O)ccc(OC)c2OC)COC1 [Compound 189, Ethyl-carbamic acid 3-[2,3-dimethoxy-6-(1-oxo-indan-4-yl)-phenoxymethyl]-oxetan-3-ylmethyl ester]
100 to 500 nM	COc1ccc(-c2ccc3c(c2)CCC3=O)c(OCC2(CO)COC2)c1OC [Compound 129, 5-[2-(3-Hydroxymethyl-oxetan-3-ylmethoxy)-3,4-dimethoxy-phenyl]-indan-1-one]
< 100 nM	COCC1(COc2c(-c3ccc4c(c3)COC4=O)ccc(OC)c2OC)COC1 [Compound 215, 5-[3,4-Dimethoxy-2-(3-methoxymethyl-oxetan-3-ylmethoxy)-phenyl]-3H-isobenzofuran-1-one]
< 100 nM	COc1ccc(-c2ccc3c(c2)CNC3=O)c(OCc2cccc(C(=O)N(C)C)c2)c1OC [Compound 157, 3-[2,3-Dimethoxy-6-(1-oxo-2,3-dihydro-1H-isoindol-5-yl)-phenoxymethyl]-N,N-dimethyl-benzamide]
< 100 nM	CCNC(=O)OCC(C)(C)COc1c(-c2ccc3c(c2)COC3=O)ccc(OC)c1OC [Compound 210, Ethyl-carbamic acid 3-[2,3-dimethoxy-6-(1-oxo-1,3-dihydro-isobenzofuran-5-yl)-phenoxy]-2,2-dimethyl-propyl Ester]
< 100 nM	CNC(=O)c1ccc(COc2c(-c3ccc4c(c3)CNC4=O)ccc(OC)c2OC)cc1 [Compound 155, 4-[2,3-Dimethoxy-6-(1-oxo-2,3-dihydro-1H-isoindol-5-yl)-phenoxymethyl]-N-methyl-benzamide]
< 100 nM	CCOC(=O)NCC1(COc2c(-c3cccc4c3CCC4=O)ccc(OC)c2OC)COC1 [Compound 196, {3-[2,3-Dimethoxy-6-(1-oxo-indan-4-yl)-phenoxymethyl]-oxetan-3-ylmethyl}-carbamic acid ethyl ester]
< 100 nM	COc1ccc(-c2cccc3c2CCC3=O)c(OCc2ccc(C(=O)N(C)C)cc2)c1OC [Compound 109, 4-[2,3-Dimethoxy-6-(1-oxo-indan-4-yl)-phenoxymethyl]-N,N-dimethyl-benzamide]
< 100 nM	COc1ccc(-c2cccc3c2CCC3=O)c(OCC2(COC(=O)NCc3ccccc3)CC2)c1OC [Compound 181, Benzyl-carbamic acid 1-[2,3-dimethoxy-6-(1-oxo-indan-4-yl)-phenoxymethyl]-cyclopropylmethyl ester]
< 100 nM	COc1ccc(-c2ccc3c(c2)CNC3=O)c(OCc2ccc(S(N)(=O)=O)cc2)c1OC [Compound 161, 4-[2,3-Dimethoxy-6-(1-oxo-2,3-dihydro-1H-isoindol-5-yl)-phenoxymethyl]-benzenesulfonamide]
< 100 nM	COc1ccc(-c2ccc3c(c2)CNC3=O)c(OCc2ccc(C(N)=O)cc2)c1OC [Compound 153, 4-[2,3-Dimethoxy-6-(1-oxo-2,3-dihydro-1H-isoindol-5-yl)-phenoxymethyl]-benzamide]
< 100 nM	COCC(=O)NCC1(COc2c(-c3cccc4c3CCC4=O)ccc(OC)c2OC)COC1 [Compound 195, N-{3-[2,3-Dimethoxy-6-(1-oxo-indan-4-yl)-phenoxymethyl]-oxetan-3-ylmethyl}-2-methoxy-acetamide]
< 100 nM	COc1ccc(-c2cccc3c2CCC3=O)c(OCc2cccc(C(=O)N(C)C)c2)c1OC [Compound 110, 3-[2,3-Dimethoxy-6-(1-oxo-indan-4-yl)-phenoxymethyl]-N,N-dimethyl-benzamide]
< 100 nM	CNC(=O)c1ccc(COc2c(-c3cccc4c3COC4=O)ccc(OC)c2OC)cc1 [Compound 117, 4-[2,3-Dimethoxy-6-(1-oxo-1,3-dihydro-isobenzofuran-4-yl)-phenoxymethyl]-N-methyl-benzamide]
< 100 nM	COc1ccc(-c2ccc3c(c2)COC3=O)c(OCC2(CO)COC2)c1OC [Compound 134, 5-[2-(3-Hydroxymethyl-oxetan-3-ylmethoxy)-3,4-dimethoxy-phenyl]-3H-isobenzofuran-1-one]
< 100 nM	COc1ccc(-c2ccc3c(c2)COC3=O)c(OCc2cccc(S(N)(=O)=O)c2)c1OC [Compound 144, 3-[2,3-Dimethoxy-6-(1-oxo-1,3-dihydro-isobenzofuran-5-yl)-phenoxymethyl]-benzenesulfonamide]
< 100 nM	COC(=O)C(C)(C)COc1c(-c2ccc3c(c2)CCC3=O)ccc(OC)c1OC [Compound 165, 3-[2,3-Dimethoxy-6-(1-oxo-indan-5-yl)-phenoxy]-2,2-dimethyl-propionic acid methyl ester]
< 100 nM	COc1ccc(-c2cccc3c2CCC3=O)c(OCC2CCC2)c1OC [Compound 102, 4-(2-Cyclobutylmethoxy-3,4-dimethoxy-phenyl)-indan-1-one]
100 to 500 nM	COc1ccc(-c2ccc3c(c2)CNC3=O)c(OCc2cccc(C(N)=O)c2)c1OC [Compound 159, 3-[2,3-Dimethoxy-6-(1-oxo-2,3-dihydro-1H-isoindol-5-yl)-phenoxymethyl]-benzamide]
< 100 nM	COc1ccc(-c2ccc3c(c2)CCC3=O)c(OCC2CCC2)c1OC [Compound 122, 5-(2-Cyclobutylmethoxy-3,4-dimethoxy-phenyl)-indan-1-one]
< 100 nM	COCC1(COc2c(-c3cccc4c3CCC4=O)ccc(OC)c2OC)COC1 [Compound 190, 4-[3,4-Dimethoxy-2-(3-methoxymethyl-oxetan-3-ylmethoxy)-phenyl]-indan-1-one]
< 100 nM	COc1ccc(-c2cccc3c2CCC3=O)c(OCc2cccc(S(C)(=O)=O)c2)c1OC [Compound 113, 4-[2-(3-Methanesulfonyl-benzyloxy)-3,4-dimethoxy-phenyl]-indan-1-one]
< 100 nM	COc1ccc(-c2ccc3c(c2)COC3=O)c(OCc2cccc(S(C)(=O)=O)c2)c1OC [Compound 143, 5-[2-(3-Methanesulfonyl-benzyloxy)-3,4-dimethoxy-phenyl]-3H-isobenzofuran-1-one]
< 100 nM	COc1ccc(-c2cccc3c2CCC3=O)c(OCc2ccc(S(N)(=O)=O)cc2)c1OC [Compound 112, 4-[2,3-Dimethoxy-6-(1-oxo-indan-4-yl)-phenoxymethyl]-benzenesulfonamide]
< 100 nM	COc1ccc(-c2cccc3c2CCC3=O)c(OCC2(CNC(=O)C(C)C)CC2)c1OC [Compound 183]
≥ 500 nM	COc1ccc(-c2ccc3c(c2)CCC3=O)c(OCC(C)(C)C(=O)NC(C)C)c1OC [Compound 208, 3-[2,3-Dimethoxy-6-(1-oxo-indan-5-yl)-phenoxy]-N-isopropyl-2,2-dimethyl-propionamide]
< 100 nM	COc1ccc(-c2ccc3c(c2)COC3=O)c(OCc2cccc(C(N)=O)c2)c1OC [Compound 146, 3-[2,3-Dimethoxy-6-(1-oxo-1,3-dihydro-isobenzofuran-5-yl)-phenoxymethyl]-benzamide]
< 100 nM	COc1ccc(-c2cccc3c2COC3=O)c(OCc2ccc(S(C)(=O)=O)cc2)c1OC [Compound 115, 4-[2-(4-Methanesulfonyl-benzyloxy)-3,4-dimethoxy-phenyl]-3H-isobenzofuran-1-one]

SMILES	IC50
COc1ccc(-c2ccc3c(c2)CCC3=O)c(OCCC(C)(C)C)c1OC [Compound 123, 5-[2-(3,3-Dimethyl-butoxy)-3,4-dimethoxy-phenyl]-indan-1-one]	< 100 nM
COc1ccc(-c2cccc3c2CCC3=O)c(OCCC(C)(C)C)c1OC [Compound 105, 4-[2-(3,3-Dimethyl-butoxy)-3,4-dimethoxy-phenyl]-indan-1-one]	< 100 nM
COc1ccc(-c2ccc3c(c2)OCC3=O)c(OCC(C)C)c1OC [Compound 176, 6-(2-Isobutoxy-3,4-dimethoxy-phenyl)-benzofuran-3-one]	100 to 500 nM
COc1ccc(-c2ccc3c(c2)CNC3=O)c(OCCC(C)(C)C)c1OC [Compound 152, 5-[2-(3,3-Dimethyl-butoxy)-3,4-dimethoxy-phenyl]-2,3-dihydro-isoindol-1-one]	< 100 nM
COc1ccc(-c2cccc3c2CNC3=O)c(OCC(C)C)c1OC [Compound 173, 4-(2-Isobutoxy-3,4-dimethoxy-phenyl)-2,3-dihydro-isoindol-1-one]	100 to 500 nM
COc1ccc(-c2ccc3c(c2)CNC3=O)c(OCCC(C)C)c1OC [Compound 147, 5-[3,4-Dimethoxy-2-(3-methyl-butoxy)-phenyl]-2,3-dihydro-isoindol-1-one]	< 100 nM
COc1ccc(-c2ccc3c(c2)COC3=O)c(OCC(C)C)c1OC [Compound 170, 5-(2-Isobutoxy-3,4-dimethoxy-phenyl)-3H-isobenzofuran-1-one]	< 100 nM
